According to patent US8293736B2, “Purine compounds selective for PI3K P110 delta, and methods of use” (F. Hoffmann la Roche AG, priority 2010, dated 2012):
pKi: −log10 of the molar value.

Legend:
p110 delta = molecular target: T1, p110 delta (Homo sapiens, UniProt O00329); assay: PI3K isoform inhibition assay (fluorescence polarization), p110 delta; type: biochemical; settings: Ki apparent, Morrison equation; 25 μM ATP, 10 μM PIP2
T1 construct: purchased Upstate Group, Millipore; Dundee, UK
Procedure: (§1) Determination of the activity of PI3 kinase activity of Formula I compounds is possible by a number of direct and indirect detection methods.
(§2) PI3K enzymatic activity was assayed by measuring the amount of product phosphatidylinositol 3,4,5-phosphate (PIP3) formed from substrate 4,5 phosphatidylinositol 4,5-phosphate (PIP2) using a fluorescence polarization displacement assay. The decrease in fluorescence polarization of a fluorescent PIP3 probe is measured as it is displaced from a PIP3-binding protein GRP-1 detector by PI3K-catalyzed product. […] The kinase reactions were initiated by the addition of 40 ng/mL p110α/p85α, 300 ng/mL p110β/p85α, 40 ng/mL p110γ, or 40 ng/mL p110δ/p85α (Upstate Group, Millipore; Dundee, UK), and 10 μM PIP2 (Echelon Biosciences) to the wells. […] After 60 minutes of incubation at room temperature to allow equilibration of labeled and unlabeled PIP3 binding, the parallel and perpendicular components of the fluorescence emissions from each sample were measured at an excitation wavelength of 530 nm and an emission wavelength of 590 nm using an Envision fluorescent plate reader with a rhodamine filter (PerkinElmer Life and Analytical Sciences; Wellesley, Mass.). The assay is capable of detecting 0.1-2.0 μM PIP3 product. The Ki apparent values were obtained by fitting the dose-dependent inhibition data to the Morrison equation for tight-binding, competitive inhibitors. Reference: R. A. Copeland, Enzymes. “A Practical Introduction to Structure, Mechanism and Data Analysis”.
The Formula I compound was serially diluted in 100% DMSO. The kinase reaction was incubated for 1 h at room temperature, and the reaction was terminated by the addition of PBS. IC50 values were subsequently determined using sigmoidal dose-response curve fit (variable slope). […]

p110 alpha = molecular target: T2, p110 alpha (Homo sapiens, UniProt P42336); assay: PI3K isoform inhibition assay (fluorescence polarization), p110 alpha; type: biochemical; settings: delta/alpha selectivity ratio
T2 construct: purchased Upstate Group, Millipore; Dundee, UK
T2 sequence (P42336 whole entry, species assumed, canonical isoform): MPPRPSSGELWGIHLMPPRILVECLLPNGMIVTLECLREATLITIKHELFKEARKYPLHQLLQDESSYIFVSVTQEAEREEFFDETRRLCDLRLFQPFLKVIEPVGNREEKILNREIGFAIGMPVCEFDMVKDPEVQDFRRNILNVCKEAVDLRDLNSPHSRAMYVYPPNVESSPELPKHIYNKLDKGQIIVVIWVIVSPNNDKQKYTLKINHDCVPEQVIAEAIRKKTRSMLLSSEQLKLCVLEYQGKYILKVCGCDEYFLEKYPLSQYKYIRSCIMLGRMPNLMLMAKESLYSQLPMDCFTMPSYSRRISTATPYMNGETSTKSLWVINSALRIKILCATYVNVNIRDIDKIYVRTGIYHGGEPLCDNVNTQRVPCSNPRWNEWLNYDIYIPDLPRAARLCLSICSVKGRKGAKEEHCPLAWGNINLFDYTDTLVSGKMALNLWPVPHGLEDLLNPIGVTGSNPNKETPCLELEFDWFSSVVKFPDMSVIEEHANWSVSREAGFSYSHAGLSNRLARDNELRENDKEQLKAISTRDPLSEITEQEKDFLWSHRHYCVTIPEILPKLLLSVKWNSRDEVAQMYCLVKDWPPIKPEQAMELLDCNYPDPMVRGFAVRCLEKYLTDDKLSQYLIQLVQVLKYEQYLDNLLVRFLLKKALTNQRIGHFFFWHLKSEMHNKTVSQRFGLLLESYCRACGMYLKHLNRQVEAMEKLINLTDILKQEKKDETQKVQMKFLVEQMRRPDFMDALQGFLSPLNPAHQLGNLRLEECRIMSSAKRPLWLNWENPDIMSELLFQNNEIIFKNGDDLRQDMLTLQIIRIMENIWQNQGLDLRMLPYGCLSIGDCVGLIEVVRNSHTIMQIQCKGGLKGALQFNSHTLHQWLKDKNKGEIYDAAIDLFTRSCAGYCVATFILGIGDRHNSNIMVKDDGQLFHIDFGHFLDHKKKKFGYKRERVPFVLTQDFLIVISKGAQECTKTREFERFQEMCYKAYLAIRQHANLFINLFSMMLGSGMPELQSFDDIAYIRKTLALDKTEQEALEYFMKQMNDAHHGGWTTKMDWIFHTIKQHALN
T2 sequence (P27986 whole entry partner, species assumed, canonical isoform): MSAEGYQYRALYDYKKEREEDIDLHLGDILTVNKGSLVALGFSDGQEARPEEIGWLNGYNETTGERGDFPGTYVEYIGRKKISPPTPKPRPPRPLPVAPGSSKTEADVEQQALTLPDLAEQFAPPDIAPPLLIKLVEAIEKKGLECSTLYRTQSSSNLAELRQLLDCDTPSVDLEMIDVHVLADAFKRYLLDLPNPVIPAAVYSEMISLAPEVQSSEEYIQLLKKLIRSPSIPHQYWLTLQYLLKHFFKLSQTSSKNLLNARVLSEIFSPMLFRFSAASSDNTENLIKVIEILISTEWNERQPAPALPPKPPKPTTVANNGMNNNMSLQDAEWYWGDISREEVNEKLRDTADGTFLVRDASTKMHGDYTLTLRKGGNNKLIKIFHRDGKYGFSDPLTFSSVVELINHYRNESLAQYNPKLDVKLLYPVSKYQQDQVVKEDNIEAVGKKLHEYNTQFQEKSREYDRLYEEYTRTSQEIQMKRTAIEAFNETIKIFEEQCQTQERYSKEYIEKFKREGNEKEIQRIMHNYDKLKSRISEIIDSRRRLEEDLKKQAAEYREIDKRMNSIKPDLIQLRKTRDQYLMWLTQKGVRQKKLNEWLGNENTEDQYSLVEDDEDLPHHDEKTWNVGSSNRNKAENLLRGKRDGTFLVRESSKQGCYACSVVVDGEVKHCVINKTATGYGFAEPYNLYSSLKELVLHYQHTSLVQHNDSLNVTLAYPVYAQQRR
Procedure: as §1, §2
The same protocol may be used to establish Ki values for p110α (alpha) PI3K binding.
The four Class I PI 3-kinases are cloned into baculovirus vectors as follows: […]

T1 sequence (O00329 whole entry, canonical isoform): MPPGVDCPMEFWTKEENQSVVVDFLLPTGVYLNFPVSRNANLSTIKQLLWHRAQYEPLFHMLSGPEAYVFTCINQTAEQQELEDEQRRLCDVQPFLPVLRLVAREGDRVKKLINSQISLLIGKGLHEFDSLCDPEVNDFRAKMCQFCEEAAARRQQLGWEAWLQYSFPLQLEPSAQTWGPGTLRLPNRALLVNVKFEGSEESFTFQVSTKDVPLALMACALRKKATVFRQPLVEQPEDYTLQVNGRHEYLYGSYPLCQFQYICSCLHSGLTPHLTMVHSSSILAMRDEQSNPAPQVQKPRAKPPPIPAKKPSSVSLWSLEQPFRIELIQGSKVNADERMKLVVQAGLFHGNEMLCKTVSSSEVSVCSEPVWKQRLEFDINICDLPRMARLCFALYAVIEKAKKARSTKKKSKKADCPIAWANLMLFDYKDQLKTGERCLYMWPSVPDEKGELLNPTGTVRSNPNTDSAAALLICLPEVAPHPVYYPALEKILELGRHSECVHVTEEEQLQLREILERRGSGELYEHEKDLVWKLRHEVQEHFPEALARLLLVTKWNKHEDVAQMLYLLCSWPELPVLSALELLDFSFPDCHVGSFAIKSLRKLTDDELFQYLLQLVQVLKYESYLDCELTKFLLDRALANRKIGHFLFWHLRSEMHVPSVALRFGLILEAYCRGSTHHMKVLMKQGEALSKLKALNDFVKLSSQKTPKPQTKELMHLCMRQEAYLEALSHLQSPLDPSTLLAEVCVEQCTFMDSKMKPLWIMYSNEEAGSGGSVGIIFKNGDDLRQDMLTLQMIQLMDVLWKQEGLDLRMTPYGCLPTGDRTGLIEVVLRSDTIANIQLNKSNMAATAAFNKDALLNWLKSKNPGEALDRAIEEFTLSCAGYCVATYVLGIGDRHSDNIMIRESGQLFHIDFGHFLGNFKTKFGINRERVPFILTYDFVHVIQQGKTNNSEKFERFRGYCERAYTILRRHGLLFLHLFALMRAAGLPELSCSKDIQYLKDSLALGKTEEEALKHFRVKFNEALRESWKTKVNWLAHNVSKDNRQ
T1 sequence (P27986 whole entry partner, canonical isoform): as the sequence (P27986 whole entry partner, species assumed, canonical isoform) above

With CCc1nc2ccccc2n1-c1nc(N2CCOCC2)c2nc(OC3CN(C(=O)C(C)(C)F)C3)n(C)c2n1 [Compound 147, 1-(3-(2-(2-ethyl-1H-benzo[d]imidazol-1-yl)-9-methyl-6-morpholino-9H-purin-8-yloxy)azetidin-1-yl)-2-fluoro-2-methylpropan-1-one] the pKi (p110 delta) was 8.63 and the “Ki p110 alpha/ Ki p110 delta” value (p110 alpha) was 72.
With CC(C)c1nc2ccccc2n1-c1nc(N2CCOCC2)c2nc(OC3CN(C4COC4)C3)n(C)c2n1 [Compound 111, 4-(2-(2-isopropyl-1H-benzo[d]imidazol-1-yl)-9-methyl-8-(1-(oxetan-3-yl)azetidin-3-yloxy)-9H-purin-6-yl)morpholine] the pKi (p110 delta) was 8.79 and the “Ki p110 alpha/ Ki p110 delta” value (p110 alpha) was 102.
With CCc1nc2ccccc2n1-c1nc(N2CCOCC2)c2nc(OC3CN(C(=O)[C@H](C)O)C3)n(C)c2n1 [Compound 129, (S)-1-(3-(2-(2-ethyl-1H-benzo[d]imidazol-1-yl)-9-methyl-6-morpholino-9H-purin-8-yloxy)azetidin-1-yl)-2-hydroxypropan-1-one] the pKi (p110 delta) was 8.85 and the “Ki p110 alpha/ Ki p110 delta” value (p110 alpha) was 87.
For CCc1nc2ccccc2n1-c1nc(N2CCOCC2)c2nc(OC3CCN(C4CCS(=O)(=O)CC4)CC3)n(C)c2n1 [Compound 106, 4-(2-(2-ethyl-1H-benzo[d]imidazol-1-yl)-9-methyl-8-(1,1-dioxo-1-(tetrahydro-2H-thiopyran-4-yl)piperidin-4-yloxy)-9H-purin-6-yl)morpholine], the pKi (p110 delta) was 9.36 and the “Ki p110 alpha/ Ki p110 delta” value (p110 alpha) was 73.
CCc1nc2ccccc2n1-c1nc(N2CCOCC2)c2nc(OC3CCN(C(=O)C(C)C)CC3)n(C)c2n1 [Compound 108, 1-(4-(2-(2-ethyl-1H-benzo[d]imidazol-1-yl)-9-methyl-6-morpholino-9H-purin-8-yloxy)piperidin-1-yl)-2-methylpropan-1-one] was tested, and the pKi (p110 delta) was 9.31 and the “Ki p110 alpha/ Ki p110 delta” value (p110 alpha) was 177.
In the case of CCc1nc2ccccc2n1-c1nc(N2CCOCC2)c2nc(OC3CN(C(=O)C4CC4)C3)n(C)c2n1 [Compound 119, Cyclopropyl(3-(2-(2-ethyl-1H-benzo[d]imidazol-1-yl)-9-methyl-6-morpholino-9H-purin-8-yloxy)azetidin-1-yl)methanone], the “Ki p110 alpha/ Ki p110 delta” value (p110 alpha) was 115.
In the case of CCc1nc2ccccc2n1-c1nc(N2CCOCC2)c2nc(OC3CN(C(=O)C4CC4)C3C)n(C)c2n1 (centres unmarked) [Compound 148, cyclopropyl(3-(2-(2-ethyl-1H-benzo[d]imidazol-1-yl)-9-methyl-6-morpholino-9H-purin-8-yloxy)-2-methylazetidin-1-yl)methanone], the pKi (p110 delta) was 9.47 and the “Ki p110 alpha/ Ki p110 delta” value (p110 alpha) was 259.
In the case of CCc1nc2ccccc2n1-c1nc(N2CCOCC2)c2nc(OC3CN(C(=O)[C@@H](C)OC)C3)n(C)c2n1 [Compound 117, (R)-1-(3-(2-(2-ethyl-1H-benzo[d]imidazol-1-yl)-9-methyl-6-morpholino-9H-purin-8-yloxy)azetidin-1-yl)-2-methoxypropan-1-one], the pKi (p110 delta) was 9.30 and the “Ki p110 alpha/ Ki p110 delta” value (p110 alpha) was 132.
With Cn1c(OC2CN(C3CCS(=O)(=O)CC3)C2)nc2c(N3CCOCC3)nc(-n3c(C(C)(F)F)nc4ccccc43)nc21 [Compound 139, 4-(2-(2-(1,1-difluoroethyl)-1H-benzo[d]imidazol-1-yl)-9-methyl-8-(1-(1,1-dioxo-tetrahydro-2H-thiopyran-4-yl)azetidin-3-yloxy)-9H-purin-6-yl)morpholine] the pKi (p110 delta) was 8.85 and the “Ki p110 alpha/ Ki p110 delta” value (p110 alpha) was 59.
CCc1nc2ccccc2n1-c1nc(N2CCOCC2)c2nc(OC3CN(C(=O)[C@H]4CC45CCC5)C3)n(C)c2n1 [Compound 152, (S)-(3-(2-(2-ethyl-1H-benzo [d]imidazol-1-yl)-9-methyl-6-morpholino-9H-purin-8-yloxy)azetidin-1-yl) (spiro[2.3]hexan-1-yl) methanone] was tested, and the pKi (p110 delta) was 9.15 and the “Ki p110 alpha/ Ki p110 delta” value (p110 alpha) was 107.
With Cn1c(OC2CN(C3CCS(=O)(=O)CC3)C2)nc2c(N3CCOCC3)nc(-n3c(CCO)nc4ccccc43)nc21 [Compound 136, 2-(1-(9-methyl-6-morpholino-8-(1-(1,1-dioxo-tetrahydro-2H-thiopyran-4-yl)azetidin-3-yloxy)-9H-purin-2-yl)-1H-benzo[d]imidazol-2-yl)ethanol] the pKi (p110 delta) was 8.31 and the “Ki p110 alpha/ Ki p110 delta” value (p110 alpha) was 90.
In the case of CCc1nc2ccccc2n1-c1nc(N2CCOCC2)c2nc(OC3CCN(C(=O)C4CC4)CC3)n(C)c2n1 [Compound 110, cyclopropyl(4-(2-(2-ethyl-1H-benzo[d]imidazol-1-yl)-9-methyl-6-morpholino-9H-purin-8-yloxy)piperidin-1-yl)methanone], the pKi (p110 delta) was 8.98 and the “Ki p110 alpha/ Ki p110 delta” value (p110 alpha) was 98.
For CCc1nc2ccccc2n1-c1nc(N2CCOCC2)c2nc(OC3CN(C(=O)C4(C(F)(F)F)CC4)C3)n(C)c2n1 [Compound 155, (3-(2-(2-ethyl-1H-benzo[d]imidazol-1-yl)-9-methyl-6-morpholino-9H-purin-8-yloxy)azetidin-1-yl)(1-(trifluoromethyl)cyclopropyl) methanone], the pKi (p110 delta) was 9.49 and the “Ki p110 alpha/ Ki p110 delta” value (p110 alpha) was 91.
For Cn1c(OC2CCN(C3CCOCC3)CC2)nc2c(N3CCOCC3)nc(-c3c(F)ccc4[nH]ccc34)nc21 [Compound 125, 4-(2-(5-fluoro-1H-indol-4-yl)-9-methyl-8-(1-(tetrahydro-2H-pyran-4-yl)piperidin-4-yloxy)-9H-purin-6-yl)morpholine], the pKi (p110 delta) was 9.01 and the “Ki p110 alpha/ Ki p110 delta” value (p110 alpha) was 485.
In the case of CCc1nc2ccccc2n1-c1nc(N2CCOCC2)c2nc(OC3CN(C4CCOCC4)C3)n(C)c2n1 [Compound 116, 4-(2-(2-ethyl-1H-benzo[d]imidazol-1-yl)-9-methyl-8-(1-(tetrahydro-2H-pyran-4-yl)azetidin-3-yloxy)-9H-purin-6-yl)morpholine], the pKi (p110 delta) was 8.89 and the “Ki p110 alpha/ Ki p110 delta” value (p110 alpha) was 118.
In the case of CCc1nc2ccccc2n1-c1nc(N2CCOCC2)c2nc(OC3CN(C(=O)C(C)(C)N)C3)n(C)c2n1 [Compound 121, 2-amino-1-(3-(2-(2-ethyl-1H-benzo[d]imidazol-1-yl)-9-methyl-6-morpholino-9H-purin-8-yloxy)azetidin-1-yl)-2-methylpropan-1-one], the pKi (p110 delta) was 8.89 and the “Ki p110 alpha/ Ki p110 delta” value (p110 alpha) was 51.
In the case of CCc1nc2ccccc2n1-c1nc(N2CCOCC2)c2nc(OC3CN(S(=O)(=O)C4CC4)C3)n(C)c2n1 [Compound 118, 4-(8-(1-(cyclopropylsulfonyl)azetidin-3-yloxy)-2-(2-ethyl-1H-benzo[d]imidazol-1-yl)-9-methyl-9H-purin-6-yl)morpholine], the pKi (p110 delta) was 9.27 and the “Ki p110 alpha/ Ki p110 delta” value (p110 alpha) was 76.
CCc1nc2ccccc2n1-c1nc(N2CCOCC2)c2nc(OC3CN(C(=O)C(C)C)C3C)n(C)c2n1 (centres unmarked) [Compound 149, 1-(3-(2-(2-ethyl-1H-benzo [d]imidazol-1-yl)-9-methyl-6-morpholino-9H-purin-8-yloxy)-2-methylazetidin-1-yl)-2-methylpropan-1-one] was tested, and the pKi (p110 delta) was 9.35 and the “Ki p110 alpha/ Ki p110 delta” value (p110 alpha) was 277.
For CCc1nc2ccccc2n1-c1nc(N2CCOCC2)c2nc(OC3CN(C(=O)C4C[C@H]4F)C3)n(C)c2n1 (stereo partly drawn) [Compound 154, (3-(2-(2-ethyl-1H-benzo [d]imidazol-1-yl)-9-methyl-6-morpholino-9H-purin-8-yloxy)azetidin-1-yl)((2R)-2-fluorocyclopropyl)methanone], the pKi (p110 delta) was 9.24 and the “Ki p110 alpha/ Ki p110 delta” value (p110 alpha) was 102.
CCc1nc2ccccc2n1-c1nc(N2CCOCC2)c2nc(OC3CN(C4CC[S+]([O-])CC4)C3)n(C)c2n1 (single isomer, unassigned) [Compound 123, 4-(2-(2-ethyl-1H-benzo[d]imidazol-1-yl)-9-methyl-8-(1-(1-oxo-tetrahydro-2H-thiopyran-4-yl)azetidin-3-yloxy)-9H-purin-6-yl)morpholine] was tested, and the pKi (p110 delta) was 9.18 and the “Ki p110 alpha/ Ki p110 delta” value (p110 alpha) was 178.
For CCc1nc2ccccc2n1-c1nc(N2CCOCC2)c2nc(OC3CN(C(=O)C4(F)CC4)C3)n(C)c2n1 [Compound 146, (3-(2-(2-ethyl-1H-benzo[d]imidazol-1-yl)-9-methyl-6-morpholino-9H-purin-8-yloxy)azetidin-1-yl)(1-fluorocyclopropyl)methanone], the pKi (p110 delta) was 8.35 and the “Ki p110 alpha/ Ki p110 delta” value (p110 alpha) was 41.
In the case of CCc1nc2ccccc2n1-c1nc(N2CCOCC2)c2nc(OC3CN(C(=O)C(C)(C)O)C3)n(C)c2n1 [Compound 115, 1-(3-(2-(2-ethyl-1H-benzo[d]imidazol-1-yl)-9-methyl-6-morpholino-9H-purin-8-yloxy)azetidin-1-yl)-2-hydroxy-2-methylpropan-1-one], the pKi (p110 delta) was 8.65 and the “Ki p110 alpha/ Ki p110 delta” value (p110 alpha) was 70.
For CCc1nc2ccccc2n1-c1nc(N2CCOCC2)c2nc(OC3CN(C(=O)C(C)(C)CO)C3)n(C)c2n1 [Compound 151, 1-(3-(2-(2-ethyl-1H-benzo [d]imidazol-1-yl)-9-methyl-6-morpholino-9H-purin-8-yloxy)azetidin-1-yl)-3-hydroxy-2,2-dimethylpropan-1-one], the “Ki p110 alpha/ Ki p110 delta” value (p110 alpha) was 126.
